Laboratory results from patent US20240174662A1, “SMALL MOLECULE INHIBITORS OF SALT INDUCIBLE KINASES” (Janssen Biotech, Inc., priority 2021, published 2024).

Biological target: SIK2 (Homo sapiens (Human), UniProt Q9H0K1)
Assay: SIK2 Enzymatic Assay Version 2 (High ATP)
Assay type: biochemical
Settings: 3 mM ATP and 200 μM HDAC5tide final, ADP-Glo Max luminescence
Procedure, shortened: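 Run at room temperature; SIK2 enzyme at 6 nM (2× final) preincubated with compound 30 min before reaction. ADP formation detected by ADP-Glo Max (2 h reagent, 1 h detection) with luminescence read-out.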

SIK2, sequence (Q9H0K1 whole entry, species assumed): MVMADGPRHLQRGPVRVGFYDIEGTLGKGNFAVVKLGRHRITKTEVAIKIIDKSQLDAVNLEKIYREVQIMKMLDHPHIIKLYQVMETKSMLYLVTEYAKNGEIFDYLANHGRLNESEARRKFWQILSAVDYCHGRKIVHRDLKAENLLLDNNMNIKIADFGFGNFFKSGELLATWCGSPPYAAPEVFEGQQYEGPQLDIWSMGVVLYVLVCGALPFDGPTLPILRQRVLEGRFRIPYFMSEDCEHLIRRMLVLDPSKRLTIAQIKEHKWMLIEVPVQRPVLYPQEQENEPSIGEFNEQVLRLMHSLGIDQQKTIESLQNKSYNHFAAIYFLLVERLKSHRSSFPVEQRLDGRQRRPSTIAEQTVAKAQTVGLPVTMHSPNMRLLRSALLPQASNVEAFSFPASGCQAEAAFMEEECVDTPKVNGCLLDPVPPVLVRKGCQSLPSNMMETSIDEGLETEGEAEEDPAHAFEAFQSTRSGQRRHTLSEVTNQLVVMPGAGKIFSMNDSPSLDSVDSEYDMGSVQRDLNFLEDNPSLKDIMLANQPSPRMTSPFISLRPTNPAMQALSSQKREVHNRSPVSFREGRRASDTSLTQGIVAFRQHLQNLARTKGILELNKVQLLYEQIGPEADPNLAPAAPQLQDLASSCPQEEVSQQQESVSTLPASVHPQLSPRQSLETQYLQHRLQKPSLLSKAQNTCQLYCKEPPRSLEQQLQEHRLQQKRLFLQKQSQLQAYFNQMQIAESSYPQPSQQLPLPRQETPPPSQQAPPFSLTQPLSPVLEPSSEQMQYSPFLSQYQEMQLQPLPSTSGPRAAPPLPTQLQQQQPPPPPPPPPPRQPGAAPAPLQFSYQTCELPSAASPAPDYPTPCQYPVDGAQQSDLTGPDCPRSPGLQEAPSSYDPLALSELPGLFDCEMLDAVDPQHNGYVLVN

IC50 | Compound
46.4 nM | Cc1onc(O[C@H]2C[C@H]3C[C@@H]2CN3)c1-c1ccn2nc(NC(=O)C3CC3)cc2c1 (racemic) [Example 212, Exo-Rac-N-[5-[3-(2-azabicyclo[2.2.1]heptan-5-yloxy)-5-methyl-isoxazol-4-yl]pyrazolo[1,5-a]pyridin-2-yl]cyclopropanecarboxamide]
35 nM | COC1(COc2noc(C)c2-c2ccn3nc(NC(=O)C4CC4)cc3c2)CCNCC1 [Example 206, N-[5-[3-[(4-methoxy-4-piperidyl)methoxy]-5-methyl-isoxazol-4-yl]pyrazolo[1,5-a]pyridin-2-yl]cyclopropanecarboxamide]
57.7 nM | C[C@H]1CN[C@@H]1COc1cnn(C)c1-c1ccn2nc(NC(=O)C3CC3)cc2c1 [Example 341, N-[5-[2-methyl-4-[[(2S,3S)-3-methylazetidin-2-yl]methoxy]pyrazol-3-yl]pyrazolo[1,5-a]pyridin-2-yl]cyclopropanecarboxamide]
6.3 nM | CC(C)CN1CC[C@@H]1COc1cnn(C)c1-c1ccn2nc(NC(=O)C3CC3)cc2c1 [Example 244, N-[5-[4-[[(2R)-1-isobutylazetidin-2-yl]methoxy]-2-methyl-pyrazol-3-yl]pyrazolo[1,5-a]pyridin-2-yl]cyclopropanecarboxamide]
101 nM | CNC1(COc2cnn(C)c2-c2ccn3nc(NC(=O)C4CC4)cc3c2)CC1 [Example 434, N-[5-[2-methyl-4-[[1-(methylamino)cyclopropyl]methoxy]pyrazol-3-yl]pyrazolo[1,5-a]pyridin-2-yl]cyclopropanecarboxamide]
99.7 nM | Cn1ncc(OC[C@H](O)c2ccccc2)c1-c1ccn2nc(NC(=O)C3CC3)cc2c1 [Example 403, N-[5-[4-[(2R)-2-hydroxy-2-phenyl-ethoxy]-2-methyl-pyrazol-3-yl]pyrazolo[1,5-a]pyridin-2-yl]cyclopropanecarboxamide]
0.9 nM | CCN1CC[C@@H]1COc1cnn(C)c1-c1ccn2nc(Nc3cc(C)nc(C)n3)cc2c1 [Example 62, N-(2,6-dimethylpyrimidin-4-yl)-5-[4-[[(2R)-1-ethylazetidin-2-yl]methoxy]-2-methyl-pyrazol-3-yl]pyrazolo[1,5-a]pyridin-2-amine]
< 0.847 nM | CCN1CC[C@@H]1COc1cnn(C)c1-c1ccn2nc(Nc3cc(C)nc(CC4CC4)n3)cc2c1 [Example 179, N-[2-(cyclopropylmethyl)-6-methyl-pyrimidin-4-yl]-5-[4-[[(2R)-1-ethylazetidin-2-yl]methoxy]-2-methyl-pyrazol-3-yl]pyrazolo[1,5-a]pyridin-2-amine]
31.1 nM | Cc1cc(Nc2cc3cc(-c4c(OC[C@H]5COC6(CCCC6)O5)cnn4C)ccn3n2)nc(C)n1 (single isomer, unassigned) [Example 299, (*S)—N-(2,6-dimethylpyrimidin-4-yl)-5-[4-(6,9-dioxaspiro[4.4]nonan-8-ylmethoxy)-2-methyl-pyrazol-3-yl]pyrazolo[1,5-a]pyridin-2-amine]
24.2 nM | CN1CC[C@@H]1COc1cnn(C)c1-c1ccn2nc(NC(=O)[C@H]3C[C@H]3c3ccccc3)cc2c1 (single isomer, unassigned) [Example 159, (1*S,2*R)—N-(5-(1-methyl-4-(((R)-1-methylazetidin-2-yl)methoxy)-1H-pyrazol-5-yl)pyrazolo[1,5-a]pyridin-2-yl)-2-phenylcyclopropane-1-carboxamide]
1.3 nM | Cc1onc(OC[C@H]2CNCC(C)(C)O2)c1-c1ccn2nc(NC(=O)C3CC3)cc2c1 [Example 86, N-[5-[3-[[(2R)-6,6-dimethylmorpholin-2-yl]methoxy]-5-methyl-isoxazol-4-yl]pyrazolo[1,5-a]pyridin-2-yl]cyclopropanecarboxamide]
2.4 nM | Cc1cc(Nc2cc3cc(-c4c(CO[C@@H]5CN(C)C[C@H]5C)cnn4C)ccn3n2)nc(C)n1 (racemic) [Example 364, Rac-N-(2,6-dimethylpyrimidin-4-yl)-5-[4-[(1,4-dimethylpyrrolidin-3-yl)oxymethyl]-2-methyl-pyrazol-3-yl]pyrazolo[1,5-a]pyridin-2-amine]
< 0.847 nM | Cc1cc(Nc2cc3cc(-c4c(OC[C@H]5CCN5C)cnn4C)ccn3n2)nc(C)n1 [Example 2, N-(2,6-dimethylpyrimidin-4-yl)-5-[2-methyl-4-[[(2R)-1-methylazetidin-2-yl]methoxy]pyrazol-3-yl]pyrazolo[1,5-a]pyridin-2-amine]
< 0.847 nM | CCN1CC[C@@H]1COc1cnn(C)c1-c1ccn2nc(Nc3cc(C)nc(C(F)(F)F)n3)cc2c1 [Example 73, 5-[4-[[(2R)-1-ethylazetidin-2-yl]methoxy]-2-methyl-pyrazol-3-yl]-N-[6-methyl-2-(trifluoromethyl)pyrimidin-4-yl]pyrazolo[1,5-a]pyridin-2-amine]
12 nM | Cn1ncc(CO[C@@H]2CNCC2(F)F)c1-c1ccn2nc(NC(=O)C3CC3)cc2c1 (single isomer, unassigned) [Example 189, (*R)—N-[5-[4-[(4,4-difluoropyrrolidin-3-yl)oxymethyl]-2-methyl-pyrazol-3-yl]pyrazolo[1,5-a]pyridin-2-yl]cyclopropanecarboxamide]
47.7 nM | CC(C)c1nccc(Nc2cc3cc(-c4c(O[C@H]5CCN(C)C5)cnn4C)ccn3n2)n1 [Example 270, N-(2-isopropylpyrimidin-4-yl)-5-[2-methyl-4-[(3S)-1-methylpyrrolidin-3-yl]oxy-pyrazol-3-yl]pyrazolo[1,5-a]pyridin-2-amine]
58.2 nM | Cn1ncc(OC[C@H]2CNC[C@@H]2O)c1-c1ccn2nc(NC(=O)C3CC3)cc2c1 [Example 345, N-[5-[4-[[(3R,4R)-4-hydroxypyrrolidin-3-yl]methoxy]-2-methyl-pyrazol-3-yl]pyrazolo[1,5-a]pyridin-2-yl]cyclopropanecarboxamide]
< 0.847 nM | [2H]C([2H])([2H])N1CC[C@@H]1COc1cnn(C([2H])([2H])[2H])c1-c1ccn2nc(Nc3cc(C)nc(C)n3)cc2c1 [Example 355, N-(2,6-dimethylpyrimidin-4-yl)-5-[2-(trideuteriomethyl)-4-[[(2R)-1-(trideuteriomethyl)azetidin-2-yl]methoxy]pyrazol-3-yl]pyrazolo[1,5-a]pyridin-2-amine]
115 nM | Cc1cc(Nc2cc3cc(-c4c(OC[C@@H]5CC[C@@H]5O)cnn4C)ccn3n2)nc(C)n1 (single isomer, unassigned) [Example 448, (1*S,2*S)-2-[[5-[2-[(2,6-dimethylpyrimidin-4-yl)amino]pyrazolo[1,5-a]pyridin-5-yl]-1-methyl-pyrazol-4-yl]oxymethyl]cyclobutanol]
50.8 nM | Cc1cc(Nc2cc3cc(-c4c(OC[C@H]5CCN5)noc4C)ccn3n2)nc(C)n1 [Example 320, 5-[3-[[(2R)-azetidin-2-yl]methoxy]-5-methyl-isoxazol-4-yl]-N-(2,6-dimethylpyrimidin-4-yl)pyrazolo[1,5-a]pyridin-2-amine]
41.8 nM | Cn1ncc(OC[C@@H]2CNCCO2)c1-c1ccn2nc(NC(=O)C3CC3)cc2c1 [Example 230, N-[5-[2-methyl-4-[[(2S)-morpholin-2-yl]methoxy]pyrazol-3-yl]pyrazolo[1,5-a]pyridin-2-yl]cyclopropanecarboxamide]
1.5 nM | [2H]C([2H])([2H])C([2H])([2H])N1CC[C@@H]1COc1cnn(C)c1-c1ccn2nc(NC(=O)C3CC3)cc2c1 [Example 254, N-[5-[2-methyl-4-[[(2R)-1-(1,1,2,2,2-pentadeuterioethyl)azetidin-2-yl]methoxy]pyrazol-3-yl]pyrazolo[1,5-a]pyridin-2-yl]cyclopropanecarboxamide]
9.7 nM | Cc1onc(OC[C@]23CN[C@H](CO2)C3)c1-c1ccn2nc(NC(=O)C3CC3)cc2c1 [Example 81, N-[5-[5-methyl-3-[[(1S,4S)-5-oxa-2-azabicyclo[2.2.1]heptan-4-yl]methoxy]isoxazol-4-yl]pyrazolo[1,5-a]pyridin-2-yl]cyclopropanecarboxamide]
61.8 nM | Cc1onc(OC[C@@H](N)C2CC2)c1-c1ccn2nc(NC(=O)C3CC3)cc2c1 [Example 328, N-[5-[3-[(2S)-2-amino-2-cyclopropyl-ethoxy]-5-methyl-isoxazol-4-yl]pyrazolo[1,5-a]pyridin-2-yl]cyclopropanecarboxamide]
442 nM | CN1CC[C@@H]1COc1cnn(C)c1-c1ccn2nc(N)cc2c1 [Example 503, 5-[2-methyl-4-[[(2R)-1-methylazetidin-2-yl]methoxy]pyrazol-3-yl]pyrazolo[1,5-a]pyridin-2-amine]
7.1 nM | CNC(=O)c1cnc(Nc2cc3cc(-c4c(OC[C@H]5CCN5C)cnn4C)ccn3n2)cn1 [Example 133, N-methyl-5-[[5-[2-methyl-4-[[(2R)-1-methylazetidin-2-yl]methoxy]pyrazol-3-yl]pyrazolo[1,5-a]pyridin-2-yl]amino]pyrazine-2-carboxamide]
80.7 nM | Cn1ncc(CO[C@@H]2CNC[C@H]2F)c1-c1ccn2nc(NC(=O)C3CC3)cc2c1 [Example 466, N-[5-[4-[[(3R,4R)-4-fluoropyrrolidin-3-yl]oxymethyl]-2-methyl-pyrazol-3-yl]pyrazolo[1,5-a]pyridin-2-yl]cyclopropanecarboxamide]
1.3 nM | Cc1cc(Nc2cc3cc(-c4c(OC[C@H]5CCN5C)cnn4C)ccn3n2)ncn1 [Example 55, 5-[2-methyl-4-[[(2R)-1-methylazetidin-2-yl]methoxy]pyrazol-3-yl]-N-(6-methylpyrimidin-4-yl)pyrazolo[1,5-a]pyridin-2-amine]
14.9 nM | CO[C@@]1(COc2noc(C)c2-c2ccn3nc(NC(=O)C4CC4)cc3c2)CCNC1 (single isomer, unassigned) [Example 209, (*S)—N-(5-(3-((3-methoxypyrrolidin-3-yl)methoxy)-5-methylisoxazol-4-yl)pyrazolo[1,5-a]pyridin-2-yl)cyclopropanecarboxamide]
23.5 nM | C[C@@H]1NC[C@H]1OCc1cnn(C)c1-c1ccn2nc(NC(=O)C3CC3)cc2c1 [Example 187, N-[5-[2-methyl-4-[[(2S,3R)-2-methylazetidin-3-yl]oxymethyl]pyrazol-3-yl]pyrazolo[1,5-a]pyridin-2-yl]cyclopropanecarboxamide]
